Experimental data from ChEMBL document CHEMBL5729054, “Five membered-aminoheterocycle and 5,6-or 6,6-membered bicyclic aminoheterocyclic inhibitors of rock for the treatment of heart failure” (2022).

Molecular target: Rho-associated protein kinase 2 (Homo sapiens, UniProt O75116)
Assay: In Vitro Assay: The effectiveness of compounds of the present invention as ROCK inhibitors can be determined in a 30 μL assay containing 20 mM HEPES, pH 7.5, 20 mM MgCl2, 0.015% Brij-35, 4 mM DTT, 5 μM ATP and 1.5 μM peptide substrate (FITC-AHA-AKRRRLSSLRA-OH) (SEQ ID No. 1). Compounds were dissolved in DMSO so that the final concentration of DMSO was <2%, and the reaction was initiated with Rho kinase variants. After incubation, the reaction was terminated by the addition of EDTA and the phosphorylated and non-phosphorylated peptides separated using a LABCHIP® 3000 Reader (Caliper Life Sciences). […] Compounds were tested in dose-response format, and the inhibition of kinase activity was calculated at each concentration of compound. The inhibition data were fit using a curve-fitting program to determine the IC50; i.e., the concentration of compound required to inhibit 50% of kinase activity.

Sequence of Rho-associated protein kinase 2 (O75116 whole entry, looked up, change not shown): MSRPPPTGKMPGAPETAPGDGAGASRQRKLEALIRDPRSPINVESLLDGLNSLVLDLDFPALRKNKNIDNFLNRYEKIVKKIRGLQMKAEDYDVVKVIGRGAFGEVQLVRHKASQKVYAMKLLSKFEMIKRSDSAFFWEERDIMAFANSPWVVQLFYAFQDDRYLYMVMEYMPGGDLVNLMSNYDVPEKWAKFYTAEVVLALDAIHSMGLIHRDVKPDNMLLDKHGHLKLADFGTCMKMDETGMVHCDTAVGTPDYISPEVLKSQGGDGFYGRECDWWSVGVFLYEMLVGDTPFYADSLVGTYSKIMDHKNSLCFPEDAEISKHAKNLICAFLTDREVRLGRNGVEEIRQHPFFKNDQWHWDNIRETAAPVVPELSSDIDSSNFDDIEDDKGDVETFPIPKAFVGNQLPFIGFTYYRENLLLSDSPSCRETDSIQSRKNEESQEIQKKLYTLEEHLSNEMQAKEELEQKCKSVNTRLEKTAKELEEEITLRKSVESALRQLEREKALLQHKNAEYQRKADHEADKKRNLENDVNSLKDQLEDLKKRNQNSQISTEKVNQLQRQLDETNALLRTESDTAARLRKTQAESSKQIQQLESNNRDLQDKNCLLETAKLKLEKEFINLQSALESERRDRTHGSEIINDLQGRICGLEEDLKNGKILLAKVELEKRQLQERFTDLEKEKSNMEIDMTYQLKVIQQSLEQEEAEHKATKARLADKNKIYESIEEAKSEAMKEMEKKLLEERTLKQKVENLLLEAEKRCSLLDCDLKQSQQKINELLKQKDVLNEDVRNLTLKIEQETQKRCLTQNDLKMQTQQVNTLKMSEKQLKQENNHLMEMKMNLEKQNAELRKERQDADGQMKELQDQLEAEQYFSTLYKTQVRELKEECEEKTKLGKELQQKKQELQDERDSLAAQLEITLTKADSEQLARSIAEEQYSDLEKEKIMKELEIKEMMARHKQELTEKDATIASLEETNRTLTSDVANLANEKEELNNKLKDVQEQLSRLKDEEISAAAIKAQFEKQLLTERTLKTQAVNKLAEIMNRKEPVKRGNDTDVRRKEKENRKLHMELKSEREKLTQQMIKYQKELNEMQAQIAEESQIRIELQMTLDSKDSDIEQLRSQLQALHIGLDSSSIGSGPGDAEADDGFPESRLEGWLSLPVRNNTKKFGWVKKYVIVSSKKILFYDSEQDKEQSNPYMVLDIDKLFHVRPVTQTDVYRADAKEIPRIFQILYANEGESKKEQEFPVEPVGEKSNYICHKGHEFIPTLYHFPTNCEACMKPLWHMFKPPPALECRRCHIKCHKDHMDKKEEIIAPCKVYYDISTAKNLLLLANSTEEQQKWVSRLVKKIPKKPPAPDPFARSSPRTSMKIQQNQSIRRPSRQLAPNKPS

Compound: N#Cc1cnc(NC2CC3(C2)CC(Oc2ncccc2C(N)=O)C3)nc1 (stereo unspecified)
- IC50: 1510 nM
